According to patent US20050142160A1, “ACTIVE ATTRACTANT COMPOSITION FOR INSECTS” (priority 2003, published 2005):

Assays:
[1] = tested on: houseflies (musca domestica); experiment: Test-room trap choice experiment, attractants compared with the standard (% of total flies caught); type: in vivo; settings: for % Catch: Table 3, TMA/Z-9 and the combination; for attractiveness to flies (in words): attractant judged by itself or against a named alternative; for effect on the attractancy of the standard TMA/Z-9 when combined (in words): in combination with trimethylamine and Z-9-tricosene
Method: The trimethylamine (TMA) solution was prepared freshly for each experiment by dissolving a known amount of trimethylamine in a solution of sodium bicarbonate in water, to make 6 milliliters total volume. […] Additional attractants were placed in a third jar lid, or otherwise dispersed separately in the lower compartment of the test traps, for comparison against the standard. A testing room approximately 10 feet by 15 feet was furnished with folding tables on which to place the traps. In such a room was placed a total of six traps, two each of the control, the new attractant, and a combination of control+new attractant. Flies were raised from fly pupae, purchased from Beneficial […], California in a separate room under controlled conditions. For each experiment, after setting up the test traps, around 200 flies were introduced into the room for an 18-24 hour period, and observations were made periodically. At the end of each experiment, flies were counted in each trap, and the remaining flies not trapped were counted in order to account for all flies. In most cases, the remaining flies not caught had expired and were found on the floor of the testing suite. The data are reported for each trap as the percentage of the total flies caught, ignoring the flies not caught. It was observed that a percentage of the initially released flies were always weaker than the main population, and would quickly move toward the floor. Thus, only healthy, active flies were caught, since they were still foraging and seeking mating partners. The experiments were repeated daily, randomly rotating the relative positions of traps in the room with respect to their contents, such that positional effects in the room would be averaged out over many repetitions of the experiment. The results of each experiment, one per day, over one to two weeks, were totaled, and the total catch per attractant type were reported as percentage of catch (% catch).

[2] = tested on: flies; experiment: Comparison of muscalure against other fly attractants; type: in vivo; settings: compared against other fly attractants; no method given

Compound	attractiveness to flies (in words) [1]	effect on the attractancy of the standard TMA/Z-9 when combined (in words) [1]	other results
CC(=O)O [Acetic Acid, Acetic acid]	weak attractant	no effect on the attractancy of TMA/Z-9	% Catch ([1]; choice between acetic acid): 7%
C=CC(O)CCCCC (stereo not drawn) [Attractant 1-octen-3-ol, 1-octen-3-ol]	non-attractive or repellent to flies	lowered the overall relative catch	% Catch ([1]; choice between 1-octen-3-ol): 0%
CCO [Ethanol]	weak attractant	no statistically significant effect on the attractancy of the standard	% Catch ([1]; choice between ethanol): 7%
CCCC(=O)O [butyric acid]		increases the attractiveness of the attractant combination	
CCCCCCCC/C=C\CCCCCCCCCCCCC [muscalure, Z-9-tricosene]			attractiveness to flies (in words) [2]: weak fly attractant
Z-9-epoxytricosene [Attractant Z-9-Epoxy]	no more attractive than Z-9-tricosene		
